Calls of active or inactive are those of the source. The rule behind the calls is not given here.
Columns and labels:
Format in all cases: cell-based
[1] = target: T1, Somatostatin receptor type 5 (Homo sapiens, UniProt P35346); assay: Compound was tested for inhibition of specific [125I]-Tyr11-SRIF binding to human recombinant SST5 (somatostatin) receptor expressed in CHO-K1 cells at 10e-6 M concentration
[2] = target: Somatostatin receptor type 2 (Homo sapiens) (UniProt P30874); assay: Tested for inhibitory activity at human recombinant sst 2 receptors expressed in CHO-K1 cells; No inhibition showed more than 50% inhibition
[3] = target: T1, Somatostatin receptor type 5; assay: Compound was tested for inhibition of specific [125I]Tyr11-SRIF binding to human recombinant SST5 (somatostatin) receptor expressed in CHO-K1 cells

T1 sequence (P35346 whole entry): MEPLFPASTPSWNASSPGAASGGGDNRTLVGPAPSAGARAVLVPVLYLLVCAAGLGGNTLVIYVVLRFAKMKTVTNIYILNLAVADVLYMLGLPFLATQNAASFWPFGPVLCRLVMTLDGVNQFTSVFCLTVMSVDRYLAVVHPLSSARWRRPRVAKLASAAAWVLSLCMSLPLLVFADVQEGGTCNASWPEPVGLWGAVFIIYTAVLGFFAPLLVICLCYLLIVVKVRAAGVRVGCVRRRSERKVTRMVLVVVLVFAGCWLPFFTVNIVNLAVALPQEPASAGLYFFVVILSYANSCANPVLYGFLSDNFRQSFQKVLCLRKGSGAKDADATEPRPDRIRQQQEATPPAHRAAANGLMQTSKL
Somatostatin receptor type 2 (Homo sapiens), sequence (P30874 whole entry): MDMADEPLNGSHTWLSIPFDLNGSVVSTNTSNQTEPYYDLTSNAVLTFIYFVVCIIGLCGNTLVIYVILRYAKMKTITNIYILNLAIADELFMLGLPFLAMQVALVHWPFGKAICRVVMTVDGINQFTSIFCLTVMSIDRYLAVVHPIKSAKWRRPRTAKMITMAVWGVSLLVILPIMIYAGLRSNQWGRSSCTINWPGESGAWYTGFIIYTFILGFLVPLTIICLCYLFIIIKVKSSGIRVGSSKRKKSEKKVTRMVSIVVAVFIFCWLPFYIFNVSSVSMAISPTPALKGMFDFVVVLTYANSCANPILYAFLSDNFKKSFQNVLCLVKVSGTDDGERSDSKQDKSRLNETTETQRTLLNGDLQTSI

Row | SMILES | inhibition [1] | Activity [2] | IC50 [3]
1 | COc1ccc(CCCCN2C(=O)N(CCN3CCCC3)C(=O)[C@@H]2Cc2cccc3ccccc23)cc1 | 60% | inactive | –
2 | O=C1[C@H](Cc2ccc(OCc3ccccc3)cc2)N(CCCCc2ccccc2)C(=O)N1CCN1CCCC1 | – | inactive | 316 nM
3 | O=C1[C@H](Cc2cccc3ccccc23)N(CCCCc2ccccc2)C(=O)N1CCN1CCCC1 | 49% | inactive | –
4 | O=C1[C@H](Cc2cccc3ccccc23)N(CCC#Cc2ccccc2)C(=O)N1CCN1CCCC1 | – | inactive | 398 nM
5 | O=C1[C@H](Cc2ccc(OCc3ccccc3)cc2)N(CCC#Cc2ccccc2)C(=O)N1CCN1CCCC1 | – | inactive | 316 nM

Continued by falling IC50 [3], values first:

Row | inhibition [1] | Activity [2] | IC50 [3] | SMILES
6 | – | inactive | 1410 nM | NCCCC[C@@H](NC(=O)CC1SC(c2ccccc2)N([C@@H](Cc2ccc(-c3ccccc3)cc2)C(N)=O)C1=O)C(N)=O (some centres undefined)
7 | – | inactive | 501 nM | COc1ccc(CCCCN2C(=O)N(CCN3CCCC3)C(=O)[C@@H]2Cc2ccc(OCc3ccccc3)cc2)cc1

From ChEMBL document CHEMBL1130716, “The solid phase synthesis of a series of tri-substituted hydantoin ligands for the somatostatin SST5 receptor” (Bioorg Med Chem Lett, 1998)
